Measurements published in ChEMBL document CHEMBL1201862, “PubChem BioAssay data set” (2004).
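Grown in 96-well plates, cells were treated for 48 hours with each compound at five concentrations. Insufficient inhibition: endpoint recorded as highest concentration tested. GI50 is the concentration that inhibits growth by half.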 The source made the active and inactive calls. Cut-off read from the data, not from the text of the source: active = GI50 up to about 1.1 µM and inactive = higher.

How the values were obtained:
Assay in all cases: inhibition of tumour cell growth, NCI panel, 48 h
786-0 = test system: 786-0
A498 = test system: A498
A549 = test system: A549
ACHN = test system: ACHN
BT-549 = test system: BT-549
CAKI-1 = test system: CAKI-1
CCRF-CEM = test system: CCRF-CEM
COLO 205 = test system: COLO 205
DU-145 = test system: DU-145
EKVX = test system: EKVX
HCC 2998 = test system: HCC 2998
HCT-116 = test system: HCT-116
HCT-15 = test system: HCT-15
HL-60 = test system: HL-60
HOP-62 = test system: HOP-62
HT-29 = test system: HT-29
Hs-578T = test system: Hs-578T
IGROV-1 = test system: IGROV-1
K562 = test system: K562
KM12 = test system: KM12
M14 = test system: M14
MCF7 = test system: MCF7
MDA-MB-231 = test system: MDA-MB-231
MDA-N = test system: MDA-N
MOLT-4 = test system: MOLT-4
Malme-3M = test system: Malme-3M
NCI-H226 = test system: NCI-H226
NCI-H23 = test system: NCI-H23
NCI-H460 = test system: NCI-H460
NCI-H522 = test system: NCI-H522
NCI/ADR-RES = test system: NCI/ADR-RES
OVCAR-3 = test system: OVCAR-3
OVCAR-4 = test system: OVCAR-4
OVCAR-5 = test system: OVCAR-5
OVCAR-8 = test system: OVCAR-8
PC-3 = test system: PC-3
SF-268 = test system: SF-268
SF-295 = test system: SF-295
SF-539 = test system: SF-539
SK-MEL-28 = test system: SK-MEL-28
SK-MEL-2 = test system: SK-MEL-2
SK-MEL-5 = test system: SK-MEL-5
SK-OV-3 = test system: SK-OV-3
SN12C = test system: SN12C
SNB-19 = test system: SNB-19
SNB-75 = test system: SNB-75
SR = test system: SR
SW-620 = test system: SW-620
T47D = test system: T47D
TK-10 = test system: TK-10
U-251 = test system: U-251
UACC-257 = test system: UACC-257
UACC-62 = test system: UACC-62
UO-31 = test system: UO-31
HOP-92 = test system: HOP-92
LOX IMVI = test system: LOX IMVI
MDA-MB-435 = test system: MDA-MB-435
RPMI-8226 = test system: RPMI-8226
RXF 393 = test system: RXF 393

Measured: GI50

CCC(C)(C)c1ccc(OCCCCNC(=O)c2ccc3ccccc3c2O)c(C(C)(C)CC)c1
inactive: 786-0 15.1 µM | A498 29.7 µM | A549 27.2 µM | ACHN 16 µM | BT-549 30.8 µM | CAKI-1 23 µM | CCRF-CEM 9.68 µM | COLO 205 14.2 µM | DU-145 54.7 µM | EKVX 21.8 µM | HCC 2998 38.3 µM | HCT-116 17.6 µM | HL-60 29.1 µM | HOP-62 33 µM | HT-29 44.7 µM | Hs-578T 31.5 µM | IGROV-1 31.2 µM | K562 4.54 µM | KM12 44.8 µM | M14 48.9 µM | MCF7 28.3 µM | MDA-MB-231 30 µM | MDA-N 35.6 µM | MOLT-4 16.1 µM | Malme-3M 11 µM | NCI-H226 12.6 µM | NCI-H23 23.7 µM | NCI-H460 23.1 µM | NCI-H522 14.6 µM | NCI/ADR-RES 25.4 µM | OVCAR-3 19.4 µM | OVCAR-4 > 100 µM | OVCAR-5 69.5 µM | OVCAR-8 27.5 µM | PC-3 6.08 µM | SF-268 22.7 µM | SF-295 48.3 µM | SF-539 33.1 µM | SK-MEL-28 13.6 µM | SK-MEL-2 30.8 µM | SK-MEL-5 19.3 µM | SK-OV-3 74 µM | SN12C 34.6 µM | SNB-19 55.2 µM | SNB-75 29.8 µM | SR > 100 µM | SW-620 18.3 µM | T47D 31 µM | TK-10 13.4 µM | U-251 43 µM | UACC-257 28 µM | UACC-62 16.3 µM | UO-31 29.3 µM
0.425 µM: HCT-15

O=C1CS[C@@](CC(c2ccc(Cl)cc2)c2ccc(Cl)cc2)(c2ccc(Cl)cc2)N1
inactive: 786-0 9.66 µM | A498 11.6 µM | A549 5.97 µM | ACHN 11.2 µM | BT-549 49.8 µM | CAKI-1 19.2 µM | CCRF-CEM 4.71 µM | COLO 205 4.74 µM | DU-145 39.1 µM | EKVX 16.9 µM | HCC 2998 19.5 µM | HCT-116 9.59 µM | HL-60 3.8 µM | HOP-62 14.2 µM | HOP-92 15.3 µM | HT-29 9.55 µM | Hs-578T 38.2 µM | IGROV-1 26.4 µM | K562 5.15 µM | KM12 13.4 µM | LOX IMVI 8.53 µM | M14 11.8 µM | MCF7 4.18 µM | MDA-MB-435 14 µM | MDA-N 8.13 µM | MOLT-4 3.32 µM | Malme-3M 21.6 µM | NCI-H226 9.75 µM | NCI-H23 9.75 µM | NCI-H460 9.1 µM | NCI-H522 6.28 µM | NCI/ADR-RES 8.17 µM | OVCAR-3 6.21 µM | OVCAR-4 6.82 µM | OVCAR-5 > 100 µM | OVCAR-8 14.6 µM | PC-3 4.68 µM | RPMI-8226 5.05 µM | RXF 393 3.56 µM | SF-268 17.5 µM | SF-295 5.08 µM | SF-539 22.8 µM | SK-MEL-28 43 µM | SK-MEL-2 19.3 µM | SK-MEL-5 12.6 µM | SK-OV-3 45 µM | SN12C 2.16 µM | SNB-19 33.2 µM | SNB-75 33.5 µM | SR 4.24 µM | SW-620 18.2 µM | T47D 4.28 µM | TK-10 51.3 µM | U-251 10.2 µM | UACC-257 14.3 µM | UACC-62 12.5 µM | UO-31 25.1 µM
10.8 µM: HCT-15

COc1nc(N(C)C)nc2c1[n+](C)cn2C [HETEROMINE A]
inactive: 786-0 48.3 µM | A498 > 100 µM | A549 46.9 µM | ACHN > 100 µM | BT-549 28.7 µM | CAKI-1 > 100 µM | CCRF-CEM 30.3 µM | COLO 205 30.8 µM | DU-145 > 100 µM | EKVX > 100 µM | HCT-116 77.8 µM | HL-60 36.6 µM | HOP-62 > 100 µM | HOP-92 > 100 µM | HT-29 > 100 µM | Hs-578T 40.3 µM | IGROV-1 > 100 µM | K562 18.6 µM | KM12 27.7 µM | LOX IMVI 84.5 µM | M14 > 100 µM | MDA-MB-231 > 100 µM | MDA-MB-435 74.8 µM | MDA-N 94.6 µM | MOLT-4 97.9 µM | Malme-3M 23.1 µM | NCI-H226 > 100 µM | NCI-H23 22.4 µM | NCI-H460 44.2 µM | NCI-H522 17.1 µM | NCI/ADR-RES > 100 µM | OVCAR-3 47 µM | OVCAR-5 > 100 µM | OVCAR-8 44.1 µM | PC-3 > 100 µM | RPMI-8226 6.08 µM | RXF 393 84.1 µM | SF-268 31.8 µM | SF-295 38.9 µM | SF-539 52.6 µM | SK-MEL-28 88.9 µM | SK-MEL-2 32.2 µM | SK-MEL-5 41.7 µM | SK-OV-3 > 100 µM | SN12C 72.8 µM | SNB-19 25.1 µM | SNB-75 > 100 µM | SW-620 57.5 µM | T47D 41.5 µM | TK-10 > 100 µM | U-251 15.6 µM | UACC-257 53.1 µM | UACC-62 > 100 µM | UO-31 > 100 µM
> 100 µM: HCT-15

Cc1c2c(cc3c1C(=O)C(O)=C([C@@H](C)CO)C3=O)C(C)(C)CCC2
29.4 µM: HCT-15
inactive: 786-0 32.3 µM | A498 25.6 µM | A549 29.8 µM | BT-549 35.2 µM | CAKI-1 33.4 µM | CCRF-CEM 10.1 µM | COLO 205 27 µM | DU-145 30.5 µM | EKVX 15.6 µM | HCT-116 25.7 µM | HOP-62 22.4 µM | HOP-92 35 µM | HT-29 15.8 µM | Hs-578T 16.7 µM | IGROV-1 29 µM | K562 38.7 µM | KM12 14.3 µM | LOX IMVI 28.3 µM | M14 23.2 µM | MDA-MB-231 23.4 µM | MDA-MB-435 26.9 µM | MDA-N 30.7 µM | MOLT-4 13.4 µM | Malme-3M 22.8 µM | NCI-H226 33.8 µM | NCI-H23 17.7 µM | NCI-H522 21.3 µM | NCI/ADR-RES 23.3 µM | OVCAR-3 27 µM | OVCAR-4 31.3 µM | OVCAR-5 36.9 µM | OVCAR-8 25.5 µM | PC-3 19.1 µM | RPMI-8226 31.3 µM | RXF 393 32.1 µM | SF-268 15 µM | SF-295 22.3 µM | SK-MEL-28 28 µM | SK-MEL-2 17.1 µM | SK-MEL-5 22.2 µM | SK-OV-3 32.7 µM | SN12C 27.7 µM | SNB-19 5.07 µM | SNB-75 21.6 µM | SR 2.84 µM | SW-620 30.2 µM | T47D 32.8 µM | TK-10 42.4 µM | U-251 17.5 µM | UACC-257 35.6 µM | UACC-62 28.2 µM | UO-31 17.5 µM

CCCCc1ccc(Nc2nc(O)c3ncn(COCCO)c3n2)cc1
inactive: 786-0 44.1 µM | A498 > 100 µM | A549 > 100 µM | ACHN > 100 µM | BT-549 > 100 µM | CCRF-CEM > 100 µM | COLO 205 > 100 µM | DU-145 > 100 µM | EKVX > 100 µM | HCC 2998 > 100 µM | HCT-116 > 100 µM | HL-60 > 100 µM | HOP-62 > 100 µM | HOP-92 > 100 µM | HT-29 > 100 µM | Hs-578T > 100 µM | IGROV-1 > 100 µM | K562 29.8 µM | KM12 > 100 µM | LOX IMVI > 100 µM | M14 > 100 µM | MCF7 > 100 µM | MDA-MB-231 > 100 µM | MDA-MB-435 > 100 µM | MDA-N > 100 µM | MOLT-4 56 µM | Malme-3M > 100 µM | NCI-H226 > 100 µM | NCI-H23 93.8 µM | NCI-H522 > 100 µM | NCI/ADR-RES > 100 µM | OVCAR-3 > 100 µM | OVCAR-4 > 100 µM | OVCAR-5 > 100 µM | OVCAR-8 > 100 µM | RPMI-8226 43.9 µM | RXF 393 > 100 µM | SF-268 > 100 µM | SF-295 > 100 µM | SF-539 > 100 µM | SK-MEL-2 > 100 µM | SK-MEL-5 > 100 µM | SK-OV-3 > 100 µM | SN12C > 100 µM | SNB-19 75.7 µM | SNB-75 > 100 µM | SR 88.3 µM | SW-620 > 100 µM | T47D 73.1 µM | TK-10 > 100 µM | U-251 57.4 µM | UACC-257 > 100 µM | UACC-62 > 100 µM | UO-31 > 100 µM
> 100 µM: HCT-15
